Results from ChEMBL document CHEMBL1201862, “PubChem BioAssay data set” (2004).
Active and inactive are the calls of the source. Cut-off read from the data, not from the text of the source, for most assays here: actives have a measured EC50 and inactives only a lower limit.

Biological target: Luciferin 4-monooxygenase (Photinus pyralis, UniProt P08659)
Test: inhibition of purified Photinus pyralis luciferase – biochemical, luminescence, dose response (AID 1891)
Conditions: not given

Sequence of Luciferin 4-monooxygenase (P08659 whole entry): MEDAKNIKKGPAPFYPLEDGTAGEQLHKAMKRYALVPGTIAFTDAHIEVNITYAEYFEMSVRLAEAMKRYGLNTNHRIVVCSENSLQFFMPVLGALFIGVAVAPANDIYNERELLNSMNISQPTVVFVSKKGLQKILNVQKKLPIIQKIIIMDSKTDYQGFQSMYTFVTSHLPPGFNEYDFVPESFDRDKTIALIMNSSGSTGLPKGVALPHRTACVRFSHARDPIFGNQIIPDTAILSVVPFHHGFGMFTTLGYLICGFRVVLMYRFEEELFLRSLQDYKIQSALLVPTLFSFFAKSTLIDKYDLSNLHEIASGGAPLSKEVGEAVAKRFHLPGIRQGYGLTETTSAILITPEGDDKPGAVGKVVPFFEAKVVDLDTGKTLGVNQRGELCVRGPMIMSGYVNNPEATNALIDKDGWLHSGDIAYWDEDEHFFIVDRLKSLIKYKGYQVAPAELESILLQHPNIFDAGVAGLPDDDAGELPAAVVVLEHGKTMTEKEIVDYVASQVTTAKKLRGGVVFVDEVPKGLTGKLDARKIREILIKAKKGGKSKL

Structure (SMILES)	EC50
Cc1ccc(Cl)c(OCC(=O)Nc2ccccc2C(=O)NC2CC2)c1	> 112 µM (not active)
CCCCCN(C(=O)CCC(=O)OCC(=O)N1C(C)CCCC1C)c1c(N)n(CCCC)c(=O)[nH]c1=O (stereo not drawn)	> 112 µM (not active)
Cc1cccc(CCNC(=O)c2cc(S(=O)(=O)N3CCCC3)cn2C)c1	> 112 µM (not active)
Cc1cc(NC(=O)CSCC(=O)Nc2ccccc2N2CCCCC2)no1	> 112 µM (not active)
CC(=O)c1cnc2c(-c3ccc(Cl)cc3)c(C)nn2c1C	> 112 µM (not active)
O=C(/C=C/c1ccc([N+](=O)[O-])cc1)NCc1cccs1	> 112 µM (not active)
Cn1nc(C(=O)Nc2nc3ccc(S(C)(=O)=O)cc3s2)ccc1=O	3.18 µM (active)
COc1ccc(-c2nc(C[S+]([O-])CC(=O)NCc3ccco3)c(C)o2)cc1 (stereo not drawn)	> 112 µM (not active)
Cc1ccc2c(c1)COc1c3ccc(C(=O)N4CCOCC4)cc3nn1-2	29.6 µM (active)
Cc1ccc(S(=O)(=O)/N=C(\c2ccc(F)cc2)n2c(C)nc3ccccc32)cc1	> 112 µM (not active)

Biological target: T1, Rac GTPase-activating protein 1 (Homo sapiens, UniProt Q9H0H5)
T1 sequence (Q9H0H5 whole entry): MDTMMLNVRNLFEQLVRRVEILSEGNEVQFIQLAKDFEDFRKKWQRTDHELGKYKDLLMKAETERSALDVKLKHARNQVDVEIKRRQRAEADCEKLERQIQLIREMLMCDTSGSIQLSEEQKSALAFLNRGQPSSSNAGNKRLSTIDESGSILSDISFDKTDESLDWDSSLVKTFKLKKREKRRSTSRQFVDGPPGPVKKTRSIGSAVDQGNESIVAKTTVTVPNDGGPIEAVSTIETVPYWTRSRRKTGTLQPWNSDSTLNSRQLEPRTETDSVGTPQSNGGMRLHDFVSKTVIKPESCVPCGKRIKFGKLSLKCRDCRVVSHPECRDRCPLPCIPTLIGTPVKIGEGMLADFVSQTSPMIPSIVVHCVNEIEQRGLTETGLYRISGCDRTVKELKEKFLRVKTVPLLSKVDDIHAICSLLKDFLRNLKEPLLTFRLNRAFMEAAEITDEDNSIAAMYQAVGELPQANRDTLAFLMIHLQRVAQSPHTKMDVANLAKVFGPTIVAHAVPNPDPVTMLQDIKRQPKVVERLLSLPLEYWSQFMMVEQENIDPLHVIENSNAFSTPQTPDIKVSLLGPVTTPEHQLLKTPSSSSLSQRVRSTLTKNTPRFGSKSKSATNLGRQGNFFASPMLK
Test: blockers of MgcRacGAP-driven Rac1 GTP hydrolysis – biochemical, ADP Hunter fluorescence, primary and confirmatory, confirmation (AID 624330)
Assay type: functional
Conditions: not given

Structure (SMILES)	IC50
CCOC(=O)/C(C#N)=C\c1ccc(O)c(OC)c1	48.9 µM (active)

Tested on: not listed separately
Test: Luminescence Cell-Based Dose Confirmation HTS to Identify Inhibitors of Platelet Dense Granule Release. [Related pubchem assays: 1663 (Primary HTS), 1678 (Summary of Project)]
Assay type: functional
Conditions: not given

Structure (SMILES)	EC50
Cc1ccc(Cl)c(OCC(=O)Nc2ccccc2C(=O)NC2CC2)c1	> 112 µM (not active)
CCCCCN(C(=O)CCC(=O)OCC(=O)N1C(C)CCCC1C)c1c(N)n(CCCC)c(=O)[nH]c1=O (stereo not drawn)	> 112 µM (not active)
Cc1cccc(CCNC(=O)c2cc(S(=O)(=O)N3CCCC3)cn2C)c1	> 112 µM (not active)
Cc1cc(NC(=O)CSCC(=O)Nc2ccccc2N2CCCCC2)no1	> 112 µM (not active)
CC(=O)c1cnc2c(-c3ccc(Cl)cc3)c(C)nn2c1C	78.7 µM (active)
O=C(/C=C/c1ccc([N+](=O)[O-])cc1)NCc1cccs1	57.2 µM (active)
Cn1nc(C(=O)Nc2nc3ccc(S(C)(=O)=O)cc3s2)ccc1=O	7.45 µM (active)
COc1ccc(-c2nc(C[S+]([O-])CC(=O)NCc3ccco3)c(C)o2)cc1 (stereo not drawn)	27.9 µM (active)
Cc1ccc2c(c1)COc1c3ccc(C(=O)N4CCOCC4)cc3nn1-2	20.9 µM (active)
Cc1ccc(S(=O)(=O)/N=C(\c2ccc(F)cc2)n2c(C)nc3ccccc32)cc1	> 112 µM (not active)

Tested on: not listed separately
Test: Luminescence Cell-Based Dose Retest to Confirm Inhibitors of Cancer Stem Cells. [Related pubchem assays (depositor defined):AID2717, AID2721]
Assay type: functional
Conditions: Homo sapiens

Structure (SMILES)	AC50
N#CC(C#N)=C(C#N)c1ccc(Nc2ccccc2)cc1	2.54 µM (active)

Tested on: not listed separately
Test: Trypanosoma cruzi growth suppression in host cells – NIH3T3 host cells, beta-gal luminescence, confirmation (AID 2044);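 note: intracellular parasites grown in NIH/3T3 mouse fibroblasts as host cells; luminescent beta-galactosidase reporter signal from transgenic T. cruzi replicating inside host cells; inhibitors lower the luminescence signal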
Assay type: functional, cell-based
Conditions: not given

Structure (SMILES)	EC50
CCOC(=O)CSc1nc2sc3c(c2c(=O)n1C1CCCCC1)CCN(C)C3	1.43 µM (active)

Tested on: not listed separately
Test: NIH3T3 cell viability loss – ATP luminescence, mouse fibroblasts, counter-screen, dose response (AID 2010);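 note: cells exposed to compound for about 90 hours before reading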
Assay type: functional, cell-based
Conditions: not given

Structure (SMILES)	EC50
CCOC(=O)CSc1nc2sc3c(c2c(=O)n1C1CCCCC1)CCN(C)C3	> 30 µM (not active)

Biological target: T2, Replicative DNA helicase DnaB (Mycobacterium tuberculosis, UniProt P9WMR3)
T2 sequence (P9WMR3 whole entry): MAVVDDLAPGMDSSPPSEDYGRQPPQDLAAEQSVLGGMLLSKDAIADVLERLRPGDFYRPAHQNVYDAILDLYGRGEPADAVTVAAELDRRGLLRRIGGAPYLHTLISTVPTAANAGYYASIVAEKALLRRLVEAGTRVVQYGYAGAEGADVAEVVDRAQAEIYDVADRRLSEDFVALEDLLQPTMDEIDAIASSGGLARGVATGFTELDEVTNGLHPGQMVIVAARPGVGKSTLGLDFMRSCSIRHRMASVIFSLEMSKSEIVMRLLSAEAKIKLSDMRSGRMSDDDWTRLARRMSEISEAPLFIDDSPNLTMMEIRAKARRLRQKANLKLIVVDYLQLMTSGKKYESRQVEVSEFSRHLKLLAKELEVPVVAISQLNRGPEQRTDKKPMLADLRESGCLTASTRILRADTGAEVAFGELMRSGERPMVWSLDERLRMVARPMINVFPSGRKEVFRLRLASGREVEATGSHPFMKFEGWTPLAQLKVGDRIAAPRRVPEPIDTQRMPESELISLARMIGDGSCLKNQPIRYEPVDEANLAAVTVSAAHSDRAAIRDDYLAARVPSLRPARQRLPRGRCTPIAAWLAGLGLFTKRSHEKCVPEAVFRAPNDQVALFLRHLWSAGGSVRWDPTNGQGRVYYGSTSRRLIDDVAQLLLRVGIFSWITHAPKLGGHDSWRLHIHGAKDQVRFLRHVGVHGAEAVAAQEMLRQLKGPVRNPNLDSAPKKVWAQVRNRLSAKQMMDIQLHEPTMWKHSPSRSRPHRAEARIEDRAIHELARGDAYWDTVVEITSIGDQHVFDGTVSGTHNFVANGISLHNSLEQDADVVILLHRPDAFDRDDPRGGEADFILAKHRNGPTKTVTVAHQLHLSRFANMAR
Test: DnaB intein splicing inhibitors, dose response, biochemical, cell-free fluorescence (AID 449749)
Assay type: functional
Conditions: not given

Structure (SMILES)	AC50
N#CC(C#N)=C(C#N)c1ccc(Nc2ccccc2)cc1	> 380 µM (inactive)
CCc1ccc(NC(=O)CSc2ccc(-c3sc(C)nc3C)nn2)cc1	278 µM (active)
O=C(NC1CCCC1)C(c1ccc(F)cc1)N(Cc1ccc(Cl)cc1)C(=O)CCl (stereo not drawn)	9.46 µM (active)
CCCc1n[nH]c2c1C(c1ccc(OC(=O)c3ccco3)cc1)C(C#N)=C(N)O2 (stereo not drawn)	3.41 µM (active)
CCOc1cc(/C=C2\C(=N)N3N=C(N4CCCCC4)SC3=NC2=O)ccc1OC(=O)c1ccco1	> 380 µM (inactive)
CCOC(=O)CSc1nc2sc3c(c2c(=O)n1C1CCCCC1)CCN(C)C3	> 380 µM (inactive)
CCOC(=O)/C(C#N)=C\c1ccc(O)c(OC)c1	27.2 µM (active)

Biological target: T3, Protein RecA (Mycobacterium tuberculosis, UniProt P9WHJ3)
T3 sequence (P9WHJ3 whole entry): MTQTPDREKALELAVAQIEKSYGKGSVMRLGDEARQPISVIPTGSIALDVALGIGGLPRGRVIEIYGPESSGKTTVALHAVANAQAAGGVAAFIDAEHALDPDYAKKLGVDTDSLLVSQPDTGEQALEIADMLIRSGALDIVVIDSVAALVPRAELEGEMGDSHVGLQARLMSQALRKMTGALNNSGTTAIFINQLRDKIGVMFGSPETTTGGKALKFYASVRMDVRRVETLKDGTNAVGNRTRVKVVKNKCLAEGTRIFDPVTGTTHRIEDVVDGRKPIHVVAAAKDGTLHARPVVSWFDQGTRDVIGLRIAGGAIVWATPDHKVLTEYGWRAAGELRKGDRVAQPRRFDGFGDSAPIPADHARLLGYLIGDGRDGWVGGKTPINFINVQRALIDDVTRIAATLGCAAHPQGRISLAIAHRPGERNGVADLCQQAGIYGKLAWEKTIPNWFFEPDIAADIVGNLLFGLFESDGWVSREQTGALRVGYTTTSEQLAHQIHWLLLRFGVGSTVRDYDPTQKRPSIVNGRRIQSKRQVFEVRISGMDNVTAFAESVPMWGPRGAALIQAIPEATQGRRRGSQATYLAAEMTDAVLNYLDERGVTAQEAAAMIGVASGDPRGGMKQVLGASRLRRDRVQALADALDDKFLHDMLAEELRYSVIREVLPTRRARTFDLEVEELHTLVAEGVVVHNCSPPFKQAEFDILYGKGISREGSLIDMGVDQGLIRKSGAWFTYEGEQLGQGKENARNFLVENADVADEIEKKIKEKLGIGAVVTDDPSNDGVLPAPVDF
Test: Fluorescence Cell-Free Homogeneous Dose Retest to Identify Inhibitors of RecA-Intein Splicing Activity. [Related pubchem assays (depositor defined):AID2097, AID2223, AID489010, AID492950]
Assay type: functional
Conditions: not given

Structure (SMILES)	EC50
N#CC(C#N)=C(C#N)c1ccc(Nc2ccccc2)cc1	2.49 µM (active)
CCc1ccc(NC(=O)CSc2ccc(-c3sc(C)nc3C)nn2)cc1	> 380 µM (inactive)
O=C(NC1CCCC1)C(c1ccc(F)cc1)N(Cc1ccc(Cl)cc1)C(=O)CCl (stereo not drawn)	0.965 µM (active)
CCCc1n[nH]c2c1C(c1ccc(OC(=O)c3ccco3)cc1)C(C#N)=C(N)O2 (stereo not drawn)	5.22 µM (active)
CCOc1cc(/C=C2\C(=N)N3N=C(N4CCCCC4)SC3=NC2=O)ccc1OC(=O)c1ccco1	18.6 µM (active)
CCOC(=O)CSc1nc2sc3c(c2c(=O)n1C1CCCCC1)CCN(C)C3	15.2 µM (active)
CCOC(=O)/C(C#N)=C\c1ccc(O)c(OC)c1	9.54 µM (active)
